Experiment [1] deals with T1, human FAAH (Homo sapiens, UniProt O00519).
T1 construct: made in house; host or cells: E. coli
T1 sequence (O00519 1-579): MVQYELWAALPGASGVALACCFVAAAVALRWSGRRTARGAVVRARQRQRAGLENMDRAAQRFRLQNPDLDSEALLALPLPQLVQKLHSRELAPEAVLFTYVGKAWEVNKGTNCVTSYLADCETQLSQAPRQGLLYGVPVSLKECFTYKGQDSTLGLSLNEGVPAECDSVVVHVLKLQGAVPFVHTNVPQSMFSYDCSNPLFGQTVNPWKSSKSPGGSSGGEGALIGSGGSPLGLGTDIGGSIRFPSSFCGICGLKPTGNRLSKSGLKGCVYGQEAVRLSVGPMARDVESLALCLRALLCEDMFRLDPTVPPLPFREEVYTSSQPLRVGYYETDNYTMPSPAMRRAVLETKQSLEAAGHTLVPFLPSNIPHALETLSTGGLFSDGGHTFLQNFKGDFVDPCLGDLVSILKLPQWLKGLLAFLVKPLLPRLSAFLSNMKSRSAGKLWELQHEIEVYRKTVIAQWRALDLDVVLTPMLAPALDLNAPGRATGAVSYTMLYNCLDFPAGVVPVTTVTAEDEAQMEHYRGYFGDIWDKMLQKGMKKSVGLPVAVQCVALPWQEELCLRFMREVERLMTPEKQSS
Description: FAAH assay, human FAAH enzyme inhibition (kinact/Ki). The following applies: oleamide substrate 50 μM, 30° C.; for kinact/KI: read-out: hFAAH kinact/Ki. It counts as biochemical. Here is the method:
(§1) The FAAH assay was carried out in 384-well clear polystyrene plates (Evergreen Scientific) in a total volume of 50 μl per well in a manner similar to that described by Mileni et al., Proc. Nat. Acad. Sci. 2008, 105, 12820-12824. All percents are by volume. Serial dilutions of compound were initially prepared in 100% DMSO, and then diluted two-fold into HPLC-grade H2O to give 50% DMSO. To each well, was placed the reaction mixture (40 μl) containing 1-4 nM FAAH, 50 mM NaPi, pH 7.4, 3 mM α-ketoglutarate, 0.15 mM NADH, 7.5 U/ml glutamate dehydrogenase, 2 mM ADP, 1 mM EDTA, and 0.1% Triton X-100 (The concentration shown for each component is the final concentration in the assay). To this mixture, was added 5 μl of a compound of Examples 1 to 56 at various concentrations in 50% DMSO (or 5 μl 50% DMSO for controls). This was immediately followed by the addition of 5 μl oleamide (500 μM) dissolved in 75% EtOH/25% DMSO and the reaction mixture was mixed for 1.5 min. The final concentrations of DMSO and EtOH in the assay were each 7.5%. The reactions were incubated at 30° C. and the absorbance at 340 nm was collected over a period of 90 min with readings taken in 30-second intervals using SpectraMax Plus^384 Microplate Spectrophotometer (Molecular Devices, Sunnyvale, Calif.). The human FAAH and rat FAAH used in the assay was prepared as described in the patent application WO 2006/067613 using wild-type E. coli cells transformed in St. Louis, Mo., U.S.A. The purity of the enzyme was greater than 98% based on an analysis by SDS-polyacrylamide gel electrophoresis followed by Coomassie Blue staining.
(§2) Reaction progress curves were corrected for the non-enzymatic oxidation of NADH by subtraction of absorbancies at each time point obtained from control reactions containing no FAAH enzyme. The loss of enzyme activity as a function of time is well-described by the following mathematical equation (1) for a mono-exponential decay: […]
(§3) where At represents the absorbance at time t, A0 represents the absorbance at time zero, and C represents a constant. Observed rates of enzyme inactivation (kobs) were determined from the non-linear reaction progress curves by fitting the corrected absorbancies to an equation for a mono-exponential decay using the third-party Microsoft Excel plug-in, XLfit (IDBS Limited). Secondary plots of kobs vs. inhibitor concentration were prepared from kobs values obtained from progress curves. Second-order rates for enzyme inactivation, expressed as kinact/Ki (M^−1s^−1), were calculated from the slopes from linear regression analysis of the secondary plot of kobs vs. inhibitor concentration as defined in following equation (2), where [I]<<Ki:
(§4) The concentration of substrate in the assay was equal to the Km for oleamide of 50 μM. Therefore, reported kinact/Ki values are obtained by multiplying resulting slopes by a factor of two (i.e. slope=kinact/(Ki*2)).

Experiment [2] deals with T2, rat FAAH (Rattus norvegicus, UniProt P97612).
T2 construct: made in house; host or cells: E. coli
T2 sequence (P97612 1-579): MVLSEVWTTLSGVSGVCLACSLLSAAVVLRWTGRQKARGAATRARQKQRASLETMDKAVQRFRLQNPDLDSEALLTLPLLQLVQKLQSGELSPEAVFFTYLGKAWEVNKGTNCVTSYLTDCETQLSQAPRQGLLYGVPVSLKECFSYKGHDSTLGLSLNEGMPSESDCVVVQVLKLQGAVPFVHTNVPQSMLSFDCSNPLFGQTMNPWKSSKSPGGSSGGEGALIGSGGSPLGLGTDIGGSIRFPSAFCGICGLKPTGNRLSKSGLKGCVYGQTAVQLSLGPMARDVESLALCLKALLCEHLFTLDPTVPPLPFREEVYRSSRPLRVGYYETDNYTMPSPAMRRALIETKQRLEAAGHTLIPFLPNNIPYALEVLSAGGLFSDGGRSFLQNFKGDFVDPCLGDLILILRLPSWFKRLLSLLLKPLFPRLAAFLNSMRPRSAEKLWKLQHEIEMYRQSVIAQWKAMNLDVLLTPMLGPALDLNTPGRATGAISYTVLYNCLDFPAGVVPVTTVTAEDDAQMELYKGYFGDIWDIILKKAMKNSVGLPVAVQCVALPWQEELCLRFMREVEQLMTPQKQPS
Description: FAAH assay, rat FAAH enzyme inhibition (kinact/Ki). Format: biochemical. The settings on record: oleamide substrate 50 μM, 30° C.; for kinact/KI: read-out: rFAAH kinact/Ki. The protocol:
as §1, §2, §3, §4

The record followed here is patent US20100113465A1, “7-AZASPIRO[3.5]NONANE-7-CARBOXAMIDE COMPOUNDS” (Pfizer Inc., priority 2008, published 2010).

The structures appear in SMILES notation.

In the case of `Cc1noc(NC(=O)N2CCC3(CC(c4ccc(F)c(Cl)c4)C3)C(C)C2)c1C` (single isomer, unassigned) [Example 42a, 2-(3-chloro-4-fluorophenyl)-N-(3,4-dimethylisoxazol-5-yl)-5-methyl-7-azaspiro[3.5]nonane-7-carboxamide], the “hFAAH kinact/Ki” value in experiment [1] was 1550 M⁻¹ s⁻¹. In experiment [2], the “rFAAH kinact/Ki” value is 3040 M⁻¹ s⁻¹.
The like results for `Cc1noc(NC(=O)N2CCC3(CC(c4ccc(F)c(Cl)c4)C3)C(C)C2)c1C` (single isomer, unassigned) [Example 42b, 2-(3-chloro-4-fluorophenyl)-N-(3,4-dimethylisoxazol-5-yl)-5-methyl-7-azaspiro[3.5]nonane-7-carboxamide] were, in that order, 37.1 M⁻¹ s⁻¹ and 49.4 M⁻¹ s⁻¹.
In the same order, the values of `Cc1noc(NC(=O)N2CCC3(CC(c4ccc(F)c(Cl)c4)C3)C(C)C2)c1C` (single isomer, unassigned) [Example 42c, 2-(3-chloro-4-fluorophenyl)-N-(3,4-dimethylisoxazol-5-yl)-5-methyl-7-azaspiro[3.5]nonane-7-carboxamide] are 2760 M⁻¹ s⁻¹ and 3530 M⁻¹ s⁻¹.
The like results for `Cc1noc(NC(=O)N2CCC3(CC(c4ccc(F)c(Cl)c4)C3)C(C)C2)c1C` (single isomer, unassigned) [Example 42d, 2-(3-chloro-4-fluorophenyl)-N-(3,4-dimethylisoxazol-5-yl)-5-methyl-7-azaspiro[3.5]nonane-7-carboxamide] were, in that order, 1100 M⁻¹ s⁻¹ and 860 M⁻¹ s⁻¹.
Take `Cc1noc(NC(=O)N2CCC3(CC2)CC(c2cccc(Oc4ccc(Br)cn4)c2)C3)c1C` [Example 11, 2-{3-[(5-bromopyridin-2-yl)oxy]phenyl}-N-(3,4-dimethylisoxazol-5-yl)-7-azaspiro[3.5]nonane-7-carboxamide]: the values for the kinact/KI in experiment [1] and in experiment [2] were 2340 M⁻¹ s⁻¹ and 9990 M⁻¹ s⁻¹, respectively.
`Cc1cccc(C2CC3(CCN(C(=O)Nc4nnnn4C)CC3)C2)c1` [Example 16, 2-(3-methylphenyl)-N-(1-methyl-1H-tetrazol-5-yl)-7-azaspiro[3.5]nonane-7-carboxamide]: the kinact/KI worked out at 9660 M⁻¹ s⁻¹ in experiment [1] and 3200 M⁻¹ s⁻¹ in experiment [2].
On to `Cc1cccc(C2CC3(CCN(C(=O)Nc4nnc(-c5ccccc5)nn4)CC3)C2)c1` [Example 17, 2-(3-methylphenyl)-N-(6-phenyl-1,2,4,5-tetrazin-3-yl)-7-azaspiro[3.5]nonane-7-carboxamide], for which the results for the kinact/KI in experiment [1] and in experiment [2] were 2460 M⁻¹ s⁻¹ and 3940 M⁻¹ s⁻¹, respectively.
The like results for `Cc1noc(NC(=O)N2CCC3(CC2)CC(c2cccc(-c4cccc(F)c4)c2)C3)c1C` [Example 31, N-(3,4-dimethylisoxazol-5-yl)-2-(3′-fluorobiphenyl-3-yl)-7-azaspiro[3.5]nonane-7-carboxamide] were, in that order, 1100 M⁻¹ s⁻¹ and 656 M⁻¹ s⁻¹.
The like results for `Cc1nnc(NC(=O)N2CCC3(CC2)CC(c2cccc(OC(F)(F)F)c2)C3)o1` [Example 35, N-(5-methyl-1,3,4-oxadiazol-2-yl)-2-[3-(trifluoromethoxy)phenyl]-7-azaspiro[3.5]nonane-7-carboxamide] were, in that order, 1530 M⁻¹ s⁻¹ and 2460 M⁻¹ s⁻¹.
The like results for `Cc1noc(NC(=O)N2CCC3(CC2)CC(c2csc(-c4cccc(F)c4)n2)C3)c1C` [Example 37, N-(3,4-dimethylisoxazol-5-yl)-2-[2-(3-fluorophenyl)-1,3-thiazol-4-yl]-7-azaspiro[3.5]nonane-7-carboxamide] were, in that order, 1900 M⁻¹ s⁻¹ and 1980 M⁻¹ s⁻¹.
For the compound `Cc1noc(NC(=O)N2CCC3(CC2)CC(c2nc(-c4ccc(OC(F)(F)F)cc4)cs2)C3)c1C` [Example 38, N-(3,4-dimethylisoxazol-5-yl)-2-{4-[4-(trifluoromethoxy)phenyl]-1,3-thiazol-2-yl}-7-azaspiro[3.5]nonane-7-carboxamide], the kinact/KI in experiment [1] was found to be 3720 M⁻¹ s⁻¹; in experiment [2] it was 756 M⁻¹ s⁻¹.
